Laboratory results reported in patent publication US20230063457A1, “DNA-PK INHIBITING COMPOUNDS” (Provincial Health Services Authority, priority 2019, published 2023).

Columns and labels:
[1] = biological target: T1, Phospho-DNA-PK in FaDu Cells (Homo sapiens, UniProt P78527); assay: Effect of compounds on phospho-DNA-PK in FaDu cells (MesoScale sandwich immunoassay); type: cell-based; settings: 1 hour pre-incubation, 1 μg/ml Neocarzinostatin 2 hours, averaged values, read-out: MSD FaDu IC50
T1 construct: host or cells: FaDu
Method: Effect of Compounds on Phospho-DNA-PK in FaDu Cells
All compounds tested were dissolved in DMSO and further dilutions were made in culture medium. Final DMSO concentration was 0.3% (v/v). The human FaDu cells (ATCC) were cultured in MEM medium supplemented with Glutamax and 10% fetal calf serum (PAA). Cells were routinely maintained at densities of 0.2×10^6 cells per ml at 37° C. in a humidified 5% CO2, 95% air atmosphere. Cells were passaged twice a week, splitting back to obtain the low density. Cells were seeded in 96 well plates (Corning 3904) at 1×10^6 cells per ml media in a volume of 50 μl per well. Seeded cells were incubated at 37° C. in a humidified 5% CO2, 95% air atmosphere for 24 hours. Compounds were added (25 μl) to the cells and pre-incubated for 1 hour. 1 μg/ml DNA-damaging agent Neocarzinostatin (NCS) was added (25 μl) to a final volume of 100 μl and incubated for 2 hours at 37° C. in a humidified 5% CO2, 95% air atmosphere. After this period of time plates were removed from the incubator and the 100 μl dilutions were removed from the wells gently, prior to the addition of 75 μl cold RIPA lysis buffer with protease and phosphatase inhibitors to achieve the cells lysis, followed by shaking on a plate shaker at 4° C. for 30 minutes. At the end of this incubation, lysate was assessed for phospho-DNA-PK levels by sandwich immune-assay carried out in anti-mouse antibody coated MesoScale plates. […] Signal obtained in the wells containing blank samples was subtracted from all other wells and IC50 values were determined by fitting a sigmoidal curve to % inhibition of control versus Logo compound concentration.

DNA-PK kinase = DNA-PK kinase (Homo sapiens, UniProt P78527); assay: Inhibition of DNA-PK kinase activity (ADP-Glo); type: biochemical; settings: averaged values over all measurements on all batches; 150 μM ATP, 1 hour at 25° C.
Method: Inhibition of DNA-PK Kinase Activity Assay buffer was 50 mM Hepes pH 7.5 containing 0.1 mg/ml BSA (albumin from bovine serum), 50 μM DTT (dithiothreitol), 20 mM MgCl2 and 10 μg/ml calf thymus DNA (activation buffer). Kinase reaction was carried out in OptiPlate 384 plates (PerkinElmer 6007299). All compounds tested were dissolved in dimethyl sulfoxide (DMSO) and further dilutions were made in assay buffer. Final DMSO concentration was 1% (v/v). Pre-incubation consisted of compound (1% DMSO in control and blank wells) and 24 ng/well DNA-PK kinase to allow the compounds to bind the enzyme (with buffer in the blank wells) for 15 minutes; after this time 150 μM Adenosine-5′-triphosphate (ATP) and 0.2 μg/μl DNA-PK substrate were added to commence the kinase reaction. Incubations were carried out for 1 hour at 25° C. Kinase activity was determined by using ADP-Glo™ reagent from Promega according to the manufacturer's instructions. The light generated was measured using a luminometer (EnVision, PerkinElmer). Signal obtained in the wells containing blank samples was subtracted from all other wells and IC50 values were determined by fitting a sigmoidal curve to % inhibition of control versus Log10 compound concentration.

| SMILES | IC50 [1] [µM] | IC50 (DNA-PK kinase) [µM] |
| --- | --- | --- |
| Oc1cnc2cc(N3CCOCC3)nc(O[C@H]3CC[C@@H](n4cc(F)cn4)CC3)c2c1 [Example 163] | 0.134 | 0.002 |
| F[C@H]1CN(c2ncn[nH]2)CC[C@@H]1Oc1nc(N2CCOCC2)cc2ncccc12 [Example 156] | 0.875 | 0.093 |
| NC(=O)[C@H]1CC[C@H](COc2nc(N3CCOCC3)cc3ncccc23)CC1 [Example 57] | 2.46 | 0.12 |
| Cn1ncnc1[C@H]1CC[C@@H](Oc2nc(N3CCOCC3)cc3ncccc23)CC1 [Example 56] | 0.238 | 0.012 |
| c1cnc2cc(N3CCOCC3)nc(O[C@H]3CC[C@@H](n4ccnn4)CC3)c2c1 [Example 79] | 0.373 | 0.006 |
| Fc1cnn([C@H]2CC[C@@H](Oc3nc(N4CCOCC4)cc4ncccc34)CC2)c1 [Example 78] | 0.195 | 0.004 |
| c1cnc(NCC2CN(c3nc(N4CCOCC4)cc4ncccc34)C2)nc1 [Parent compound 98] | 0.702 | 0.036 |
| NC(=O)[C@H]1CC[C@@H](Oc2nc(N3CCOCC3)cc3ncccc23)CC1 [Example 3] | 0.361 | 0.009 |
| Oc1cnc2cc(N3CCOCC3)nc(O[C@H]3CC[C@@H](c4cscn4)CC3)c2c1 [Example 167] | 0.219 | 0.004 |
| COc1cnc2cc(N3CCOCC3)nc(O[C@H]3CC[C@@H](n4cc(F)cn4)CC3)c2c1 [Parent compound 170] | 0.232 | 0.008 |
| Cn1cnc([C@H]2CC[C@@H](Oc3nc(N4CCOCC4)cc4ncccc34)CC2)n1 [Example 72] | 0.218 | 0.011 |
| CC1CN(c2ncn[nH]2)CCC1Oc1nc(N2CCOCC2)cc2ncccc12 (stereo not shown) [Example 157] | 3 | 0.16 |
| O=C1NCC(CNc2nc(N3CCOCC3)cc3ncccc23)CO1 (stereo not shown) [Parent compound 97] | 3.33 | 0.027 |
| Fc1cnc(NCC2CCN(c3nc(N4CCOCC4)cc4ncccc34)CC2)nc1 [Example 104] | 3.02 | 0.05 |
| Fc1c[nH]c([C@H]2CC[C@@H](Oc3nc(N4CCOCC4)cc4ncccc34)CC2)n1 [Example 76] | 0.143 | 0.011 |
| CS(=O)(=O)N1CCN(c2nc(N3CCOCC3)cc3ncccc23)CC1 [Example 144] | 2.89 | 0.117 |
| N#Cc1cccnc1NCC1CCN(c2nc(N3CCOCC3)cc3ncccc23)CC1 [Example 115] | 7.99 | 0.12 |
| c1cncc(NCC2CCN(c3nc(N4CCOCC4)cc4ncccc34)CC2)c1 [Example 133] | 11.4 | 0.155 |
| Oc1cnc2cc(N3CCOCC3)nc(O[C@H]3CC[C@@H](c4nccs4)CC3)c2c1 [Example 168] | 0.272 | 0.005 |
| CCOC(=O)c1cnc(NCC2CCN(c3nc(N4CCOCC4)cc4ncccc34)CC2)nc1 [Example 112] | 2.03 | 0.112 |
| c1cnc(N2CCC3(CCN(c4nc(N5CCOCC5)cc5ncccc45)C3)C2)nc1 (stereo not shown) [Example 22] | 1.55 | 0.198 |
| c1cnnc(NCC2CCN(c3nc(N4CCOCC4)cc4ncccc34)CC2)c1 [Parent compound 131] | 7.31 | 0.063 |
| c1cnc2cc(N3CCOCC3)nc(N3CCC(CNc4nnc[nH]4)CC3)c2c1 [Parent compound 153] | 2.49 | 0.03 |
| C[C@@H]1CN(c2cc3ncccc3c(O[C@H]3CC[C@@H](c4nc[nH]n4)CC3)n2)CCO1 [Example 66] | 0.265 | 0.003 |
| c1cnc(N2CCC3CN(c4nc(N5CCOCC5)cc5ncccc45)CC32)nc1 (stereo not shown) [Example 17] | 4.45 | 0.148 |
| c1cnc(N2CCC(Oc3nc(N4CCOCC4)cc4ncccc34)CC2)nc1 [Example 127] | 13.8 | 0.203 |
| c1cnc(NCCC2CN(c3nc(N4CCOCC4)cc4ncccc34)C2)nc1 [Example 21] | 7.96 | 0.164 |

| SMILES | IC50 [1] [µM] | IC50 (DNA-PK kinase) [µM] |
| --- | --- | --- |
| c1cnc2cc(N3CCOCC3)nc(O[C@H]3CC[C@@H](c4nnc[nH]4)CC3)c2c1 [Example 71] | 0.062 | 0.002 |
| CCCCc1nc2cc(N3CCOCC3)nc(O[C@H]3CC[C@@H](n4cc(F)cn4)CC3)c2cc1O [Parent compound 175] | 0.464 | 0.018 |
| N#Cc1cnc(NCC2CCN(c3nc(N4CCOCC4)cc4ncccc34)CC2)nc1 [Example 107] | 2.37 | 0.066 |
| c1cnc(NC2CC3(CCN(c4nc(N5CCOCC5)cc5ncccc45)C3)C2)nc1 (mixture of isomers) [Example 1] | 0.832 | 0.082 |
| C[C@H]1CN(c2ncn[nH]2)CC[C@@H]1Oc1nc(N2CCOCC2)cc2ncccc12 (single isomer, unassigned) [Parent compound 158] | 10 | 0.102 |
| c1cnc(N2CCC(COc3nc(N4CCOCC4)cc4ncccc34)CC2)nc1 [Example 129] | 1.31 | 0.044 |
| c1cnc2cc(N3CCOCC3)nc(OCC3CN(c4ncn[nH]4)C3)c2c1 [Parent compound 151] | 1.69 | 0.082 |
| c1cnc2cc(N3CCOCC3)nc(NCC3CCN(c4nnc[nH]4)CC3)c2c1 [Parent compound 152] | 5.79 | 0.019 |
| N#Cc1ccnc(NCC2CCN(c3nc(N4CCOCC4)cc4ncccc34)CC2)n1 [Example 108] | 3.38 | 0.069 |
| CNc1cnc2cc(N3CCOCC3)nc(O[C@H]3CC[C@@H](n4ccnc4)CC3)c2c1 [Parent compound 171] | 0.27 | 0.01 |
| N#Cc1cccc(-c2ccnc(NCC3CCN(c4nc(N5CCOCC5)cc5ncccc45)CC3)n2)n1 [Example 119] | 2.41 | 0.136 |
| c1cnc2cc(N3CCOCC3)nc(O[C@H]3C[C@@H](c4ncc[nH]4)C3)c2c1 [Example 87] | 1.16 | 0.051 |
| C[C@H]1COCCN1c1cc2ncccc2c(O[C@H]2CC[C@@H](c3nc[nH]n3)CC2)n1 [Example 67] | 0.891 | 0.032 |
| C[C@@H]1COCCN1c1cc2ncccc2c(O[C@H]2CC[C@@H](c3nc[nH]n3)CC2)n1 [Example 69] | 5.05 | 0.261 |
| Brc1cnc2cc(N3CCOCC3)nc(O[C@H]3CC[C@@H](n4ccnc4)CC3)c2c1 [Example 54] | 0.182 | 0.003 |
| Cc1noc([C@H]2CC[C@@H](Oc3nc(N4CCOCC4)cc4ncccc34)CC2)n1 [Example 5] | 1.37 | 0.021 |
| c1cnc2cc(N3CCOCC3)nc(O[C@H]3CC[C@@H](c4nnn[nH]4)CC3)c2c1 [Example 74] | 0.759 | 0.003 |
| Cc1ccnc(NCC2CCN(c3nc(N4CCOCC4)cc4ncccc34)CC2)n1 [Example 109] | 4.83 | 0.076 |
| CS(=O)(=O)[C@H]1CC[C@@H](Oc2nc(N3CCOCC3)cc3ncccc23)CC1 [Example 82] | 1.89 | 0.141 |
| c1cnc(NCc2cnn(-c3nc(N4CCOCC4)cc4ncccc34)c2)nc1 [Example 24] | 9.35 | 0.213 |
| Cn1cc([C@H]2CC[C@@H](Oc3nc(N4CCOCC4)cc4ncc(O)cc34)CC2)cn1 [Example 166] | 0.19 | 0.004 |
| CN1CC(CNc2nc(N3CCOCC3)cc3ncccc23)COC1=O (stereo not shown) [Parent compound 150] | 1.92 | 0.066 |
| CN(C)C(=O)c1ccnc(NCC2CCN(c3nc(N4CCOCC4)cc4ncccc34)CC2)n1 [Example 106] | 11.4 | 0.052 |
| c1cnc(NCC2CCN(c3nc(N4CCOCC4)cc4ncccc34)C2)nc1 (stereo not shown) [Example 11] | 3.5 | 0.05 |
| Cc1cnc(NCC2CCN(c3nc(N4CCOCC4)cc4ncccc34)CC2)nc1 [Example 102] | 0.905 | 0.039 |
| [2H]C1([2H])OC([2H])([2H])C([2H])([2H])N(c2cc3ncccc3c(O[C@H]3CC[C@@H](c4nc[nH]n4)CC3)n2)C1([2H])[2H] [Example 65] | 0.21 | 0.002 |
